In patent US20090162351A1, “Transdiscal administration of inhibitors of p38 MAP kinase” (DePuy Spine, Inc., priority 2007, published 2009):
Values belong to the compound of their own block, whether it stands above or below them.

Assays:
[1] = test system: annulus fibrosus and nucleus pulposus cells from bovine caudal discs treated with IL-1β; assay: 3D in vitro disc cell model: GAG (DMMB); assay type: cell-based
Excerpt: Three-dimensional in vitro annulus fibrosis (AF) and nucleus pulposus (NP) models were established to investigate proteoglycan modulation and changes in gene expression in response to inflammatory cytokines such as interleukin-1 (e.g., IL-1β) and potential therapeutic agents such as growth and differentiation factor (GDF-5), and p38 MAP kinase inhibitors. AF and NP cells from bovine caudal discs were isolated by enzymatic digestion and seeded (2×10^6 cells/cm^2) onto Millipore CM filters coated with Collagen Type II and cultured in DMEM/20% heat-inactivated FBS, 100 ug/ml ascorbic acid and 5 ng/ml TGFβ1. […] Results were evaluated by histology (Tol. Blue staining was used to observe matrix production). Dimethylmethylene blue (DMMB) was used to detect sulphated glycosaminoglycans in a GAG/DNA assay. Taqman analysis was performed on aggrecans (AGG), collagen type 1 (col-1), collagen type 2 (col-2), and MMP 3, MMP 9 and MMP 13. In FIGS. 19A-C and 20A-C, annulus fibrosus and nucleus pulposus cells from bovine caudal discs were isolated by enzymatic digestion and seeded (2×10^6 cells/cm2) onto Millipore CM filters coated with Collagen Type II and cultured in DMEM/20% heat-inactivated FBS/100 ug/ml ascorbic acid and 5 ng/ml TGF-β1.

[2] = target: JNK2 (Homo sapiens, UniProt P45984); assay: JNK2 inhibition; assay type: biochemical; details: read-out: inhibitor of JNK2, IC50
Sequence of JNK2 (P45984 whole entry, species assumed): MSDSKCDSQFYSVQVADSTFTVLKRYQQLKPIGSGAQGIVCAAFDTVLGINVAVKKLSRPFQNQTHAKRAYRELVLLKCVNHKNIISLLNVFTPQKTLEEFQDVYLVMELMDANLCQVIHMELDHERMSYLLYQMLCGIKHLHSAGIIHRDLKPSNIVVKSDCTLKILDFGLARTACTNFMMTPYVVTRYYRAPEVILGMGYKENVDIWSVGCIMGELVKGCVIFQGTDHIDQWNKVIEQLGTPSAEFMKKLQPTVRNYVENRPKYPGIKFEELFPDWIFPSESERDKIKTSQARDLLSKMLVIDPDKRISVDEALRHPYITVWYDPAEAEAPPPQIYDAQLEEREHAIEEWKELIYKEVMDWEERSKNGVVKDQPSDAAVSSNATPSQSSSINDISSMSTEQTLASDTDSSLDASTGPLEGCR

[3] = Monkey PK; details: in vivo, female monkey
[4] = target: CYP2C9 (Homo sapiens, UniProt P11712); assay: CYP2C9 inhibition; assay type: in vitro ADME
Sequence of CYP2C9 (P11712 whole entry): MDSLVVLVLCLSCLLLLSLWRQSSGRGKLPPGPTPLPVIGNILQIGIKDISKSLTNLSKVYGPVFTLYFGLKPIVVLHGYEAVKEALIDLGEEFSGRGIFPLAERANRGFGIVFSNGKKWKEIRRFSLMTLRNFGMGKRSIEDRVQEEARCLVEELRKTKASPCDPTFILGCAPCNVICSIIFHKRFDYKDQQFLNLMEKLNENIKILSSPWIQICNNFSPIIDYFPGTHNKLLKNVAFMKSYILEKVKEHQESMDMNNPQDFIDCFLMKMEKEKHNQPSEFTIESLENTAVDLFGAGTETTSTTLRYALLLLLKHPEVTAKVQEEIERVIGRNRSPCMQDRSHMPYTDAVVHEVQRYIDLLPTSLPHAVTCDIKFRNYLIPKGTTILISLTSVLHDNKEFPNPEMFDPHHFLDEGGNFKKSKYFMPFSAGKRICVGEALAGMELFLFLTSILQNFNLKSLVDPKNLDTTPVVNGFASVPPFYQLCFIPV

[5] = target: inactivated p38 MAP kinase (Homo sapiens, UniProt Q16539); assay: Binding to inactivated p38 MAP kinase; details: read-out: binds to inactivated p38 MAP kinase, Kd
Sequence of inactivated p38 MAP kinase (Q16539 whole entry): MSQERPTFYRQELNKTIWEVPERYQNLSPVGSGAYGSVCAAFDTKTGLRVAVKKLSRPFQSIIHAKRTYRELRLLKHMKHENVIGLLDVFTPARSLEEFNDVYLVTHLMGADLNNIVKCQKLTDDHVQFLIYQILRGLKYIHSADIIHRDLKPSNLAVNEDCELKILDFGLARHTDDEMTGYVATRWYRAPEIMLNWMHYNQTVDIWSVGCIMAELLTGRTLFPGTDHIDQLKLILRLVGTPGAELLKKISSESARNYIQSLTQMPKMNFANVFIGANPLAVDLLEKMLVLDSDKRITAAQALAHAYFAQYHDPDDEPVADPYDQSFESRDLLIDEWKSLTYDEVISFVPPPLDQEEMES

[6] = test system: LPS-induced IL-1 in hPBMC; assay: LPS-induced IL-1 in hPBMC; assay type: cell-based, human; details: read-out: inhibitor of LPS-induced IL-1 in hPBMC, IC50

- IC50 [2]: 80 nM
Compound: OCCC#Cc1nc(-c2ccc(F)cc2)c(-c2ccncc2)n1CCCc1ccccc1 [JNJ 3026582 (RWJ 67657), 4-[4-(4-fluorophenyl)-1-(3-phenylpropyl)-5-(4-pyridinyl)-1H-imidazol-2-yl]-3-butyn-1-ol]
- amount of GAG in the tissue (in words) ([1]; 10 ng/ml IL-1β, inhibitor 1 μM, rhGDF-5 200 ng/ml): restored
- GAG release (in words) ([1]; Example V, IL-1β-treated disc cells): prevented GAG release in a dose dependent manner

- bioavailability ([3]; read-out: Monkey (F) PK, F %): 12%
- half-life ([3]; read-out: Monkey (F) PK, t1/2 (converted)): 1.3 h
Compound: C[C@@H]1CN(Cc2ccc(F)cc2)[C@@H](C)CN1C(=O)c1cc2c(C(=O)C(=O)N(C)C)cn(C)c2cc1Cl [SCIO-469 (SD 469)]

Compound: C[C@@H]1CN(Cc2ccc(F)cc2)[C@@H](C)CN1C(=O)c1cc2cc(C(=O)C(=O)N(C)C)[nH]c2cc1Cl [SCIO-282 (SD 282)]
- IC50 [4]: 500 nM

Compound: CC(=O)N1CCN(c2c(-c3ccncc3)c(-c3ccc(F)cc3)c(C#N)n2C)CC1 [JNJ 17089540 (RWJ 669307)]
- Kd [5]: 100 nM
- IC50 [6]: 250 nM
